The source of these data is patent US20230365488A1, “TRUXILLIC ACID MONOESTER-DERIVATIVES AS SELECTIVE FABP5 INHIBITORS AND PHARMACEUTICAL COMPOSITIONS AND USES THEREOF” (The Research Foundation for The State University of New York, priority 2020, published 2023).

For one test, the target named is FABP3 (Homo sapiens (Human), UniProt P05413). The test is described as follows: FABP3 fluorescent probe displacement binding assay. To be noted: average ± S.E. of at least three independent experiments.
Sequence of FABP3 (P05413 whole entry): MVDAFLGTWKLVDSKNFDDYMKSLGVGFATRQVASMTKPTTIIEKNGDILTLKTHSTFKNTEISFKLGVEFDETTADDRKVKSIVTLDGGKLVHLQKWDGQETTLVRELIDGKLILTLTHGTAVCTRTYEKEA
The target of another test is FABP5 (Homo sapiens (Human), UniProt Q01469). Nature of the test: FABP5 fluorescent probe displacement binding assay. The note with it: for Ki: average ± S.E. of at least three independent experiments; for FABP3 Ki/FABP5 Ki: selectivity ratio FABP3 over FABP5.
Sequence of FABP5 (Q01469 whole entry): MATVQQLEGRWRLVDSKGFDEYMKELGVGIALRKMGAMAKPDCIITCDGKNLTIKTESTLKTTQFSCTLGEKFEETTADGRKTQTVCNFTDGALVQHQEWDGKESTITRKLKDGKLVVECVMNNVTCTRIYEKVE
In another test the target is FABP7 (Homo sapiens (Human), UniProt O15540). Nature of the test: FABP7 fluorescent probe displacement binding assay. The note with it: average ± S.E. of at least three independent experiments.
Sequence of FABP7 (O15540 whole entry): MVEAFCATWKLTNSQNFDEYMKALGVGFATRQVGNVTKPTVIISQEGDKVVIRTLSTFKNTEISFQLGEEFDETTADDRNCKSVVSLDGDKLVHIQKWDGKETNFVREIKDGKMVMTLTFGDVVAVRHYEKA
In test [1] the test system is HepG2 (human liver cancer) cells. Nature of the test: Cytotoxicity (MTT) assay, HepG2 (Example 5). The class given is cell-based. To be noted: 72-hour incubation, 1% FBS.
Test [2] relates to WI-38 (human normal lung fibroblast) cells. Nature of the test: Cytotoxicity (MTT) assay, WI-38 (Example 5). To be noted: 72-hour incubation, 1% FBS. It counts as cell-based.
For test [3], the system named is PC-3 (human metastatic prostate cancer) cells. The test is described as follows: Cytotoxicity (MTT) assay, PC-3 (Example 5). To be noted: 72-hour incubation, 1% FBS, read-out: PC3 IC50. It counts as cell-based.

SMILES strings stand for the structures. Some results are limits rather than exact numbers.

For the compound `O=C(O)[C@@H]1C(c2ccccc2)[C@@H](C(=O)Oc2ccccc2-c2ccc3c(c2)OCO3)[C@@H]1c1ccccc1` (mixture of isomers) [Compound 1i, (±)-α-3-[2-(benzo[d][1,3]dioxol-5-yl)phenoxycarbonyl]-2,4-di (2-dimethoxyphenyl)cyclobutane-1-dicarboxylic acid], the Ki on FABP3 stood at 1.13 ± 0.15 µM; at FABP5, 0.79 ± 0.18 µM; at FABP7, 0.32 ± 0.13 µM. For the same compound, at FABP5, the “FABP3 Ki/FABP5 Ki” value turned out to be 1.4.
For `COc1ccccc1C1[C@@H](C(=O)O)[C@@H](c2ccccc2OC)[C@@H]1C(=O)Oc1cccc(-c2ccc3c(c2)NC(=O)C3)c1` (mixture of isomers) [Compound 1j, (±)-α-2,4-di (2-methoxyphenyl)-3-[3-(2-oxoindolin-6-yl)phenoxycarbonyl]cyclobutane-1-carboxylic acid], the Ki at FABP3 was 3.29 ± 0.45 µM; at FABP5, 1.06 ± 0.08 µM.
On to `COc1ccccc1[C@@H]1[C@H](C(=O)O)[C@@H](c2ccccc2OC)[C@H]1C(=O)Oc1ccc2cc(-c3cncnc3)ccc2c1` (racemic) [Compound 1k, (±)-α-2,4-di (2-methoxyphenyl)-3-[7-(5-pyrimidine)naphthalen-2-yloxycarbonyl]cyclobutane-1-carboxylic acid], for which the values for the Ki at FABP3, at FABP5 and on FABP7 were 4.78 ± 0.18 µM, 1.3 ± 0.09 µM and 6.36 ± 1.04 µM, respectively. The “FABP3 Ki/FABP5 Ki” value at FABP5 worked out at 3.7.
For `COc1ccccc1C1[C@@H](C(=O)O)[C@@H](c2ccccc2OC)[C@@H]1C(=O)OC1Cc2ccccc2C1` (mixture of isomers) [Compound 1l, (±)-α-3-(2,3-dihydro-1-inden-2-yloxycarbonyl)-2,4-di (2-methoxyphenyl)cyclobutane-1-carboxylic acid], the Ki at FABP3 and at FABP7 was 53.8 ± 7.28 µM each time. Moreover, the half-maximal inhibitory concentration (IC50) in test [1] is 45.5 µM; in test [2], 63.7 µM; in test [3], 48.9 µM.
Consider `COc1ccccc1C1[C@@H](C(=O)O)[C@@H](c2ccccc2OC)[C@@H]1C(=O)Oc1cccc(-c2ccc(C#N)cc2)c1` (mixture of isomers) [Compound 1p, (±)-3-(4′-cyano-1,1′-biphenyl-3-yloxycarbonyl)-2,4-di (2-methoxyphenyl)cyclobutane-1-carboxylic acid], for which the results for the inhibition constant (Ki) at FABP3, at FABP5 and on FABP7 were 4.64 ± 0.04 µM, 1.74 ± 0.08 µM and 3.16 ± 0.43 µM, respectively. Further, the “FABP3 Ki/FABP5 Ki” value on FABP5 stood at 2.7.
On to `COc1ccccc1C1[C@@H](C(=O)O)[C@@H](c2ccccc2OC)[C@@H]1C(=O)Oc1ccccc1-c1ccc2c(c1)OCCO2` (mixture of isomers) [Compound 1s, (±)-α-3-[2-(2,3-dihydrobenzo[b][1,4]dioxin-6-yl)phenoxycarbonyl]-2,4-bis(2-methoxyphenyl)cyclobutane-1-carboxylic acid], for which the inhibitory constant (Ki) on FABP3 worked out at 2.29 ± 0.56 µM; at FABP5, 2.81 ± 0.42 µM; on FABP7, 0.67 ± 0.15 µM. The “FABP3 Ki/FABP5 Ki” value on FABP5 is recorded as 0.8.
In the case of `N#Cc1ccc(-c2ccccc2OC(=O)[C@H]2C(c3ccccc3)[C@@H](C(=O)O)[C@H]2c2ccccc2)cc1` (mixture of isomers) [Compound 2d, (±)-γ-3-(4′-cyano-1,1′-biphenyl]-2-yloxycarbonyl)-2,4-diphenylcyclobutane-1-carboxylic acid], the Ki came out at 5.78 ± 1.3 µM on FABP3, 1.39 ± 0.07 µM at FABP5 and 0.95 ± 0.05 µM on FABP7. The “FABP3 Ki/FABP5 Ki” value at FABP5 amounted to 4.1.
For the compound `COc1ccccc1[C@H]1[C@H](C(=O)O)[C@H](c2ccccc2OC)[C@@H]1C(=O)Oc1cccc(-c2ccc(F)cc2)c1` (racemic) [Compound 2e, (±)-γ-3-(4′-fluoro-1,1′-biphenyl-3-yl)oxycarbonyl-2,4-di (2-methoxyphenyl)cyclobutane-1-carboxylic acid], the Ki at FABP3 is 6.1 ± 1.34 µM; at FABP5, 1.77 ± 0.02 µM; on FABP7 it was 3.59 ± 0.24 µM. Further, the “FABP3 Ki/FABP5 Ki” value on FABP5 is recorded as 3.4.
Take `COc1ccccc1[C@H]1[C@H](C(=O)O)[C@H](c2ccccc2OC)[C@@H]1C(=O)Oc1cccc2ccccc12` (racemic) [Compound 2f, (±)-γ-2,4-di (2-methoxyphenyl)-3-(naphthalen-1-yloxycarbonyl)cyclobutane-1-carboxylic acid]: the Ki on FABP3 was determined as 1.66 ± 0.45 µM; on FABP7, 1.45 ± 0.52 µM.
For `COc1ccccc1C1[C@@H](C(=O)O)[C@@H](c2ccccc2OC)[C@H]1C(=O)Oc1cccc(-c2ccc(C#N)cc2)c1` (mixture of isomers) [Compound 2g, (±)-γ-3-(4′-cyano-1,1′-biphenyl]-3-yloxycarbonyl)-2,4-di (2-methoxyphenyl)cyclobutane-1-carboxylic acid], the Ki was found to be 27.9 ± 6.37 µM on FABP3, 2.46 ± 0.19 µM at FABP5 and 9.11 ± 1.47 µM at FABP7. Also, the “FABP3 Ki/FABP5 Ki” value at FABP5 was 11.3.
Consider `COc1ccccc1C1[C@@H](C(=O)O)[C@@H](c2ccccc2OC)[C@H]1C(=O)Oc1cccc(-c2ccc3c(c2)OCCO3)c1` (mixture of isomers) [Compound 2k, (±)-γ-3-[3-(2,3-dihydrobenzo[b][1,4]dioxin-6-yl)phenoxycarbonyl]-2,4-di(2-methoxyphenyl)cyclobutane-1-carboxylic acid], for which the values for the Ki on FABP3, at FABP5 and at FABP7 were 8.18 ± 2.67 µM, 3.69 ± 0.65 µM and 5.12 ± 0.32 µM, respectively. Moreover, the “FABP3 Ki/FABP5 Ki” value at FABP5 is 2.2.
Take `COc1ccccc1C1[C@@H](C(=O)OC2Cc3ccccc3C2)[C@@H](c2ccccc2OC)[C@H]1C(=O)O` (mixture of isomers) [Compound 2l, (±)-γ-3-(2,3-dihydro-1H-inden-2-yloxycarbonyl)-2,4-bis(2-methoxyphenyl)cyclobutane-1-carboxylic acid]: the Ki on FABP3 was 136 ± 16.4 µM; on FABP7 it was 5.14 ± 0.27 µM.
For `O=C(O)[C@H]1[C@H](c2ccccc2)[C@@H](C(=O)Oc2ccc3cc(-c4cncnc4)ccc3c2)[C@H]1c1ccccc1` (racemic) [Compound 2m, (±)-γ-2,4-diphenyl-3-[6-(pyrimidin-5-yl)naphthalen-2-yloxy)carbonyl]cyclobutane-1-carboxylic acid], the inhibition constant (Ki) at FABP3 turned out to be 1.3 ± 0.18 µM; at FABP5, 2.56 ± 0.17 µM; at FABP7, 4.19 ± 0.71 µM. In addition, the “FABP3 Ki/FABP5 Ki” value on FABP5 turned out to be 0.51.
Turning to `O=C1CCc2cc(-c3cccc(OC(=O)[C@H]4[C@@H](c5ccccc5)[C@@H](C(=O)O)[C@@H]4c4ccccc4)c3)ccc2N1` (racemic) [Compound 2n, (±)-γ-3-[(3-(2-oxo-1,2,3,4-tetrahydroquinolin-6-yl)phenoxycarbonyl]-2,4-diphenylcyclobutane-1-carboxylic acid], the Ki on FABP3 stood at 4.07 ± 0.24 µM; at FABP5, 7.59 ± 1.11 µM; on FABP7, 3.49 ± 0.49 µM. Further, the “FABP3 Ki/FABP5 Ki” value at FABP5 was 0.54.
Turning to `O=C(O)[C@H]1[C@H](c2ccccc2)[C@H](C(=O)OCc2cccc3ccccc23)[C@H]1c1ccccc1` [Compound 1r, α-2,4-diphenyl-3-(1-naphthaylmethyl)cyclobutane-1-carboxylic acid], the Ki at FABP3 came out at 51.2 ± 5.71 µM; on FABP5, 2.64 ± 0.01 µM; on FABP7 it was 10.2 ± 1.42 µM. The “FABP3 Ki/FABP5 Ki” value on FABP5 came to 9.0.
For `COc1ccccc1[C@H]1[C@H](C(=O)O)[C@H](c2ccccc2OC)[C@H]1C(=O)OCC1(F)c2ccccc2-c2ccccc21` [Compound 1t] the same measures were 25.9 ± 2.4 µM, 1.83 ± 0.27 µM, 7.72 ± 1.2 µM and 14.2.
As to `O=C1CCc2ccc(-c3cccc(OC(=O)[C@H]4[C@@H](c5ccccc5)[C@H](C(=O)O)[C@@H]4c4ccccc4)c3)cc2N1` [Compound 1u], the Ki on FABP3 came to 7.67 ± 0.71 µM; on FABP5, 0.59 ± 0.08 µM; on FABP7, 0.33 ± 0.01 µM. The “FABP3 Ki/FABP5 Ki” value at FABP5 came out at 13.0.
Turning to `O=C(O)[C@H]1[C@@H](c2ccccc2)[C@H](C(=O)OC2Cc3ccccc3C2)[C@@H]1c1ccccc1` [Compound 1v], the Ki is above 10 µM on FABP3 and 2.41 ± 0.09 µM on FABP7.
For `O=C(O)[C@H]1[C@H](c2ccccc2)[C@H](C(=O)Oc2cccc3ccccc23)[C@H]1c1ccccc1` [Compound 1x] the same measures were 2.7 ± 0.42 µM and 0.45 ± 0.07 µM.
For the compound `O=C(O)[C@H]1[C@H](c2ccccc2)[C@H](C(=O)Oc2ccccc2-c2ccccc2)[C@H]1c1ccccc1` [Compound 1z], affinity on FABP3 was put at a Ki of 0.7 ± 0.42 µM.
In the case of `O=C(O)[C@@H]1[C@@H](c2ccccc2)[C@H](C(=O)OC2Cc3ccccc3C2)[C@H]1c1ccccc1` [Compound 3a, (±)-ε-3-[(2,3-dihydro-1H-inden-2-yl)oxycarbonyl]-2,4-diphenylcyclobutane-1-carboxylic acid], the values for the Ki at FABP3 and on FABP7 were 4.75 ± 0.57 µM and 2.07 ± 0.09 µM, respectively.
As for `O=C(O)[C@@H]1[C@@H](c2ccccc2)[C@H](C(=O)Oc2cccc(-c3ccccc3)c2)[C@H]1c1ccccc1` [Compound 3b, (±) -ε-3-(1,1′-biphenyl-3-yloxycarbonyl)-2,4-diphenylcyclobutane-1-carboxylic acid], the inhibition constant Ki amounted to 18.6 ± 0.73 µM on FABP3 and 2.15 ± 0.09 µM on FABP7.
`O=C(O)[C@@H]1[C@@H](c2ccccc2)[C@H](C(=O)Oc2cccc(-c3ccc4c(c3)OCCO4)c2)[C@H]1c1ccccc1` [Compound 3d, (±)-ε-3-[3-(2,3-dihydrobenzo[b][1,4]dioxin-6-yl)phenoxycarbonyl]-2,4-diphenylcyclobutane-1-carboxylic acid]: the Ki stood at 7.84 ± 0.7 µM at FABP3, 3.15 ± 0.28 µM at FABP5 and 1.49 ± 0.15 µM at FABP7. For the same compound, on FABP5, the “FABP3 Ki/FABP5 Ki” value amounted to 2.5.
Take `COc1ccccc1[C@H]1[C@H](C(=O)O)[C@H](c2ccccc2OC)[C@@H]1C(=O)Oc1cccc(-c2ccc(F)cc2)c1` [Compound 3e, ε-2,4-diphenyl-3-(4-fluorophenyl)phenoxycarbonylcyclobutane-1-carboxylic acid]: the Ki was 15.5 ± 1.91 µM at FABP3, 3.4 ± 0.52 µM on FABP5 and 2.19 ± 0.04 µM at FABP7. The “FABP3 Ki/FABP5 Ki” value on FABP5 is on record as 4.7.

For orientation: Ki means a dissociation constant, usually derived from enzyme kinetics or from competition with a known ligand. A lower Ki goes with tighter binding. A word on the IC50: it is the concentration at which inhibition is half-maximal.
